Laboratory results taken from patent US11357774B2, “Use of a quinoline sulfonyl compound for treatment of inflammation, inflammatory disorders, autoimmune disorders and malaria” (priority 2019, dated 2022).

Tests used:
mouse organs / tumor = conditions: cited from earlier work
[1] = test system: myeloperoxidase (MPO) activity in right lung tissues; experiment: Myeloperoxidase assay in lung tissues of mice with LPS-induced ALI; assay type: in vivo, mouse; conditions: LPS 0.4 mg/kg, 24 hours, VR23 30 mg/kg intraperitoneally
Procedure: Six to eight week old female BALB/c mice strain 028 (Charles River Laboratories, QC, Canada) were fed regularly with laboratory chow and water upon arrival at the Laurentian University Animal Care Facility (Sudbury, ON, Canada). To determine a useful dose of LPS, three mice per group were treated for 24 hours with the following three different conditions: (i) no LPS, (ii) 0.25 mg of LPS per kg of body weight, and (iii) 0.50 mg of LPS per kg of body weight. The different concentrations of LPS were administered intranasally to the three BALB/c mice per concentration. After the animals were sacrificed, the bronchoalveolar lavage fluid (BALF) of each mouse was collected and analyzed for LPS-induced inflammatory responses. […] Experimental design involving the use of VR23 was based on a previous acute lung injury (ALI) instillation by Wei and Huang^26. Briefly, mice were divided into 5 groups, with 3-5 mice per group: no lung injury (i.e., no treat), sham treated, LPS-only, LPS+DEX, and LPS+VR23. […] Bronchoalveolar lavage fluid was collected and the number of cells infiltrated into the bronchoalveolar fluid were counted (FIG. 2). […]
The accumulation of neutrophils in the lung tissues was analyzed with a colorimetric MPO assay kit (Sigma Aldrich), which measures the amount of myeloperoxidase activity^26. […] The MPO activity was then determined as per the protocol provided by the supplier. […]

[2] = test system: BALB/c mice with ALI caused by LPS; experiment: LPS-induced acute lung injury in mice, bronchoalveolar fluid cell counts and TNF-α; assay type: in vivo, mouse; conditions: 24 hours, VR23 30 mg/kg intraperitoneally
Text: The enzyme-linked immunosorbent assay (ELISA) is a quantitative measurement based on sandwich-based enzyme linking, using a protein-specific capture antibody to determine the levels of single or multiple chemokines and cytokines.
Six to eight week old female BALB/c mice strain 028 (Charles River Laboratories, QC, Canada) were fed regularly with laboratory chow and water upon arrival at the Laurentian University Animal Care Facility (Sudbury, ON, Canada). To determine a useful dose of LPS, three mice per group were treated for 24 hours with the following three different conditions: (i) no LPS, (ii) 0.25 mg of LPS per kg of body weight, and (iii) 0.50 mg of LPS per kg of body weight. […] After the animals were sacrificed, the bronchoalveolar lavage fluid (BALF) of each mouse was collected and analyzed for LPS-induced inflammatory responses. […] Bronchoalveolar lavage fluid was collected and the number of cells infiltrated into the bronchoalveolar fluid were counted (FIG. 2). […]
Toward this goal, a useful LPS dose to induce TNF-α in the mouse bronchoalveolar fluid was first obtained. […] To illustrate the anti-inflammatory property of VR23, the level of TNF-α in the BALF was measured at 24-hour post-treatment. […] The levels of TNF-α were determined at 24-hour post-LPS stimulation (0.4 mg/kg), in the absence (controls) or presence of DEX (4 mg/kg) or VR23 (30 mg/kg).

O=[N+]([O-])c1ccc(S(=O)(=O)N2CCN(c3ccnc4cc(Cl)ccc34)CC2)c([N+](=O)[O-])c1 [VR23, 7-chloro-4-(4-(2,4-dinitrophenylsulfonyl)piperazin-1-yl)quinoline]
anti-tumor activity (mouse organs / tumor; animal-based studies): strong anti-tumor activity
toxicity to mouse organs (mouse organs / tumor; animal-based studies): without any notable toxic side effects to mouse organs
toxic side effects of paclitaxel in combination (mouse organs / tumor; used in combination with paclitaxel (Tax)): reduces toxic side effects caused by paclitaxel
myeloperoxidase (MPO) in lung tissues [1]: strong inhibitor of MPO
total number of cells recruited into the bronchoalveolar space ([2]; LPS 0.4 mg/kg intranasally): completely prevented
level of TNF-α in bronchoalveolar lavage fluid ([2]; LPS 0.4 mg/kg): effectively reduces the level of TNF-α
